Assay results from patent publication EP4548971A1, “1,4-BENZOTHIAZEPINES AND RELATED COMPOUNDS WITH CYCLOPROPANOL GROUPS AS MULTI-TARGETED DRUGS” (Georg-August-Universität Göttingen Stiftung Öffentlichen …, priority 2023, dated 2025).

Target: T1, WT RyR2 (Mus musculus, UniProt E9Q401)
T1 construct: expressed in transfected cells
Assay: Time-lapse [Ca2+]ER assay (RyR2 R-CEPIA1er assay) in HEK-293 cells
Type: cell-based
Conditions: for RyR2 effect class: 25 µM in RyR2 R-CEPIA1er assay; for effect on [Ca^2+]ER (R-CEPIA1er fluorescence), in words: 25 µM, vs. 0.1 v/v% DMSO; for EC50: HEK-293 WT RyR2 R-CEPIA1er cells, range after the semicolon is not explained
Experimental: HEK-293 cells stably expressing R-CEPIA1er and WT RyR2 (generous gift from Takashi Murayama, Juntendo University School of Medicine, Tokyo) were cultured in Dulbecco's Modified Eagle medium (DMEM, Thermo Fisher Scientific, Darmstadt, Germany) supplemented with 10% fetal bovine serum (FBS, Thermo Fisher Scientific, Darmstadt, Germany), 0.9% Penicillin/Streptomycin (Merck KGaA, Darmstadt, Germany), 15ug/mL Blasticidine (Invivogen, Toulouse, France), 100 µg/mL Hygromycin (Merck KGaA, Darmstadt, Germany) and 400 µg/mL G418 (Thermo Fisher Scientific, Darmstadt, Germany) in a humidified 5% COz incubator at 37 °C. To induce the expression of WT RyR2 in the endoplasmic reticulum (ER), 2 µg/mL Doxycycline (Merck KGaA, Darmstadt, Germany) was added 24 h before experiments.
The fluorescent plate reader [Ca^2+]ER assay was performed according to the slightly modified protocol of Murayama & Kurebayashi [T. Murayama, N. Kurebayashi, Assays for Modulators of Ryanodine Receptor (RyR)/Ca(2+) Release Channel Activity for Drug Discovery for Skeletal Muscle and Heart Diseases. Curr. Protoc. […] After the cells were inducted with Doxycycline for 24 h, changes in ER calcium concentrations [Ca^2+]ER were measured on a multiwell plate reader TECAN Spark 20M at 37 °C. The 1000 × stock solutions of the test compounds were prepared in DMSO. Briefly, the culture medium was removed and 100 µl of Tyrode's solution containing 2 mM CaCl2 was added to the cells. The time courses were recorded in each well. Fluorescence was evoked by 560 nm excitation wavelength and collected in a bottom-read mode at 610 nm. Data was recorded every 10 s, exposure - 20 flashes, excitation bandwidth - 20 nm, emission bandwidth - 20 nm. 100 µl of 0 - 100 µM solution of test compound in Tyrode's solution containing 2 mM CaCh was injected in each well (speed 100 µl/s) at the 90 s time point. […] The 0.1 v/v% DMSO and 2 mM CaCh Tyrode's solution was used as a control.
The dose response curves were calculated using the software package GraphPad Prism version 8.3.1. (GraphPad Software, Inc.). All data are presented as mean ± S.D. in 3 independent experiments. Y=Bottom + (Top-Bottom)/(1+10^((LogEC50-X)*HillSlope)) was used where HillSlope describes the steepness of the curve, Top and Bottom are plateaus in the units of the Y axis.
The inventors measured changes in Ca^2+ levels in the endoplasmic reticulum (ER) of HEK-293 cells with inducible expression of wild-type RyR2 (WT RyR2) [T. Murayama, N. Kurebayashi, M. Ishigami-Yuasa, S. Mori, Y. Suzuki, R. Akima, H. Ogawa, J. Suzuki, K. Kanemaru, H. Oyamada, Y. Kiuchi, M. Iino, H. Kagechika, T. Sakurai, Efficient High-Throughput Screening by Endoplasmic Reticulum Ca(2+) Measurement to Identify Inhibitors of Ryanodine Receptor Ca(2+)-Release Channels. […] The cells additionally stably express the Ca^2+ fluorescence indicator R-CEPIA1er, which is a genetically encoded sensor protein of Ca^2+ in the ER ([Ca^2+]ER) [T. Murayama, N. Kurebayashi, Assays for Modulators of Ryanodine Receptor (RyR)/Ca(2+) Release Channel Activity for Drug Discovery for Skeletal Muscle and Heart Diseases. Curr. Protoc.
The fluorescence ratio F/F0 was calculated, where F0 - is the average fluorescence for the first 90 s, F - is the average fluorescence for the last 100 s, and normalized.

T1 sequence (E9Q401 whole entry): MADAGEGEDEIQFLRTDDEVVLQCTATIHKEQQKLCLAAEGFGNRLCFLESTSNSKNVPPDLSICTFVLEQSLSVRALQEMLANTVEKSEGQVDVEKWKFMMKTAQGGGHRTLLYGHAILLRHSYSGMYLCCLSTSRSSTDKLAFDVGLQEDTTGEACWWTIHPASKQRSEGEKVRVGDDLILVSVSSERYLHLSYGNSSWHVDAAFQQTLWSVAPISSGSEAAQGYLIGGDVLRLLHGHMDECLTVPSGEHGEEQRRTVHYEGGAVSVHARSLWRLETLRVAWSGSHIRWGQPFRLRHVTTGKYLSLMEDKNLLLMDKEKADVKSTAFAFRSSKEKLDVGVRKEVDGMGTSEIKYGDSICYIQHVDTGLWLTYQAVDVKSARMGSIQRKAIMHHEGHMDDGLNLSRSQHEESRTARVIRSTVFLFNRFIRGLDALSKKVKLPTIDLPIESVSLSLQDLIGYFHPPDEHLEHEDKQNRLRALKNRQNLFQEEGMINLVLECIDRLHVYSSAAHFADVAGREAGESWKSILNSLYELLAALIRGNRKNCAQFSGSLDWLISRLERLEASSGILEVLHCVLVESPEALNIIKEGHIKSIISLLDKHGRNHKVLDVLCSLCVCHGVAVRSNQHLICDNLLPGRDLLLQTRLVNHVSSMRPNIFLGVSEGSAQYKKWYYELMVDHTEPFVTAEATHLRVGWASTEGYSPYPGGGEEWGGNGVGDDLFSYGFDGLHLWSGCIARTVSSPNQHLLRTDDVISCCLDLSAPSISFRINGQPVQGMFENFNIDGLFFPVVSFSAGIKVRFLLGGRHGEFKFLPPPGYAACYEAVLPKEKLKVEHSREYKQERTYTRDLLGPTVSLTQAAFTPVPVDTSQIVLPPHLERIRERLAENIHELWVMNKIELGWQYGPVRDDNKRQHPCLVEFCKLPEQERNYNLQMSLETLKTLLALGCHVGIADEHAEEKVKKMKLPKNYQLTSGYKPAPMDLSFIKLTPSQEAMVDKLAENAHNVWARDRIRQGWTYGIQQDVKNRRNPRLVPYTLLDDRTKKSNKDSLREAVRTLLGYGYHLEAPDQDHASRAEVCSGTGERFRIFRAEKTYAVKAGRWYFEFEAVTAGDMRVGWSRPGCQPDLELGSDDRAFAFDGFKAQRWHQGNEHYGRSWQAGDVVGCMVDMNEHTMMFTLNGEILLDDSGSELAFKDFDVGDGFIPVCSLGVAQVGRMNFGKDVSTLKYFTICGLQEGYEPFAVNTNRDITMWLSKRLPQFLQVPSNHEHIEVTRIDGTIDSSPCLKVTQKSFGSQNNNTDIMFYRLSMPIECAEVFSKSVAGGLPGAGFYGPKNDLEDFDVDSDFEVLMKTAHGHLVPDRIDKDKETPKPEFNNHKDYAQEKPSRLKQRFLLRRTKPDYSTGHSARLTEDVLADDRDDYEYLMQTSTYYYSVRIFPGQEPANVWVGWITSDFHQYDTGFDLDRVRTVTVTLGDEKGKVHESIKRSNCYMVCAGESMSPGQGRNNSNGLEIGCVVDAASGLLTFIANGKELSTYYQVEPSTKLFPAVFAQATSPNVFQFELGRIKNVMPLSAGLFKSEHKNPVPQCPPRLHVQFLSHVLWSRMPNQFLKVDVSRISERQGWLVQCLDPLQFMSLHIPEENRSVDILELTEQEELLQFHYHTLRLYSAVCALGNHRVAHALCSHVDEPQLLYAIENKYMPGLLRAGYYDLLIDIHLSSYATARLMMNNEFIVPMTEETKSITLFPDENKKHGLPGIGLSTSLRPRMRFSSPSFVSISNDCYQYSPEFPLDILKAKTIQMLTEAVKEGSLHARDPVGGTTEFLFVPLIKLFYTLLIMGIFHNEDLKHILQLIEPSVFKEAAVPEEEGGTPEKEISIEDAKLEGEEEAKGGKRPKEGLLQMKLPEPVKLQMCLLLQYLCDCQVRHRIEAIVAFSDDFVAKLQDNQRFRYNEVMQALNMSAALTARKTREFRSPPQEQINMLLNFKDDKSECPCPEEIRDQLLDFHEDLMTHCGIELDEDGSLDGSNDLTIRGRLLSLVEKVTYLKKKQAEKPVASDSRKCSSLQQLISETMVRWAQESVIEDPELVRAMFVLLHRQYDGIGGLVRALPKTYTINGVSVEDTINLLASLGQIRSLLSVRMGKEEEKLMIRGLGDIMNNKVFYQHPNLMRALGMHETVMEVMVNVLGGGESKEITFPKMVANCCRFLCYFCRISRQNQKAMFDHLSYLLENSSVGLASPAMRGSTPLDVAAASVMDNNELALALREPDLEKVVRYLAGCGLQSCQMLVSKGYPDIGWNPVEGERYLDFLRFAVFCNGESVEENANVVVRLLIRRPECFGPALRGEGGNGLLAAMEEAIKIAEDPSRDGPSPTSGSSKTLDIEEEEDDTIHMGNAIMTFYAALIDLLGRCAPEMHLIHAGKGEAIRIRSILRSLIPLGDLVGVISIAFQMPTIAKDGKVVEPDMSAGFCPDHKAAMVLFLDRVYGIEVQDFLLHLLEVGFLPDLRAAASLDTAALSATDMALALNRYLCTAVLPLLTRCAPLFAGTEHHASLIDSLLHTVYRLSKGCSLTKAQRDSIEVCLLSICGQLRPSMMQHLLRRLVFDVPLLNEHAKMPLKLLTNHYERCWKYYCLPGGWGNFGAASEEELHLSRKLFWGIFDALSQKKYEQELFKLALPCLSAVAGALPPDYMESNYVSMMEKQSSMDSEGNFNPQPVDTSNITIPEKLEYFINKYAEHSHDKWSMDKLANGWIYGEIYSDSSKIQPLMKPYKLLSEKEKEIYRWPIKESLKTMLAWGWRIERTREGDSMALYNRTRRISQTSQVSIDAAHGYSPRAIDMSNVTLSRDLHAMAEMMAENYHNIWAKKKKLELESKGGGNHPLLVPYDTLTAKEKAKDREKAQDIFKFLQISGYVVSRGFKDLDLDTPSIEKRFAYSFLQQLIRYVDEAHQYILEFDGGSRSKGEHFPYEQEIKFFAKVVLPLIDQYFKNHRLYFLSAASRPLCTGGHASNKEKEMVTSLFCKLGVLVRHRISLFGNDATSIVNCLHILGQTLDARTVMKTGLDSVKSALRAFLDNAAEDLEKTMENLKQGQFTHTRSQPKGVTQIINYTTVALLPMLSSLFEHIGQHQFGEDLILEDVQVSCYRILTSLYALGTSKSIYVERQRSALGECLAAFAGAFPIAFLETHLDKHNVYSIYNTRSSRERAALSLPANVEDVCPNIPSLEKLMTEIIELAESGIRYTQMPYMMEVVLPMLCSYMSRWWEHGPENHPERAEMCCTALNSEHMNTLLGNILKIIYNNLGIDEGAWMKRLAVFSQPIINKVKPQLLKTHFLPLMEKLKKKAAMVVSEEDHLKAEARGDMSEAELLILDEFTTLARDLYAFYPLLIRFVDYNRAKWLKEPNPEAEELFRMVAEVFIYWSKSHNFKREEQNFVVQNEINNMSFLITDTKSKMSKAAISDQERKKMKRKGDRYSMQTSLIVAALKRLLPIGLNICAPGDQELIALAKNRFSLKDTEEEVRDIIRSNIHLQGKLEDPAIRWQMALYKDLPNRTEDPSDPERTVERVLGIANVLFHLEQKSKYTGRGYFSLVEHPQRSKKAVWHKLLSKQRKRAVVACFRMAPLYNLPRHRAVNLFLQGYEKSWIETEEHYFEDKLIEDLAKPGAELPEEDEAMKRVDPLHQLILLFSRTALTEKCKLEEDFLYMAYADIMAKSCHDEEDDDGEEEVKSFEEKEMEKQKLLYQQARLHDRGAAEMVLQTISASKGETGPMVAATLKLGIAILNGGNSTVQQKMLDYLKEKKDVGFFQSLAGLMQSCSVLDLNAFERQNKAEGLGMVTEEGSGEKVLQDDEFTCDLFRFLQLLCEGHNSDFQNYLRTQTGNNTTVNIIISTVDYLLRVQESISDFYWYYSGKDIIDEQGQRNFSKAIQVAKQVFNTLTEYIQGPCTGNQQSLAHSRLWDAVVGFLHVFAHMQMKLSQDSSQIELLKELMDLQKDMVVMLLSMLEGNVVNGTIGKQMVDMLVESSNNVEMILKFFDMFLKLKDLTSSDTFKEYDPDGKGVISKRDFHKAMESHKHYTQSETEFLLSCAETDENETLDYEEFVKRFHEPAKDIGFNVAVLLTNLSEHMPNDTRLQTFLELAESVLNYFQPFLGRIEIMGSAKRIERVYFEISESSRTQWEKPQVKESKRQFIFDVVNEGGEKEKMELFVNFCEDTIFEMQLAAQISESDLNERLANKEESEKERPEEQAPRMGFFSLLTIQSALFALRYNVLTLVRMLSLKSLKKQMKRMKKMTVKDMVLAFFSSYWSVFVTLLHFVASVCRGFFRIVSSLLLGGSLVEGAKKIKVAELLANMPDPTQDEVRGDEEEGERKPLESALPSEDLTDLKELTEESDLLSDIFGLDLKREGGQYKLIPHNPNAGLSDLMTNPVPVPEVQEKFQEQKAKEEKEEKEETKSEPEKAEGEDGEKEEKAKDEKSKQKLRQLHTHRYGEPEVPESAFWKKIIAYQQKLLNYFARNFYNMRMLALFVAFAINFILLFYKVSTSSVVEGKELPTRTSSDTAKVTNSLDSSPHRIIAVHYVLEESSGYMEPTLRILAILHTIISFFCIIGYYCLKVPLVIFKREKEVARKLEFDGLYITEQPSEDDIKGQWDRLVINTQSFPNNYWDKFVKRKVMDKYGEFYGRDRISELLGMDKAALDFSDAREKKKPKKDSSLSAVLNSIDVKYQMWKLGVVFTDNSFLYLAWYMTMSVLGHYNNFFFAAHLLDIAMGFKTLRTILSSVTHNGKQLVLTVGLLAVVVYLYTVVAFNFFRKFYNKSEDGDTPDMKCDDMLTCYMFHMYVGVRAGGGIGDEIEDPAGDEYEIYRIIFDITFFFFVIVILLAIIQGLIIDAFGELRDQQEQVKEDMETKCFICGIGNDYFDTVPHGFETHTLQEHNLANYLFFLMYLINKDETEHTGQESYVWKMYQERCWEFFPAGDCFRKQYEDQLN

Row | SMILES | RyR2 effect class | effect on [Ca^2+]ER (R-CEPIA1er fluorescence), in words | EC50
1 | COc1ccc2c(c1)CN(Cc1ccc(C(=O)O)cc1)CCS2 [ARM210, reference compound] | ++ | significantly increased [Ca^2+]ER | 
2 | COc1ccc2c(c1)CN(CCCCNCCCCC1(O)CC1)CCS2 [Compound 13a, 1-(4-((4-(7-Methoxy-2,3-dihydrobenzo[1,4-f]-thiazepin-4(5H)-yl)butyl)amino)butyl)cyclopropan-1-ol] | ++ |  | 
3 | COc1ccc(OCCCNCCCCC2(O)CC2)cc1 [Compound 13b, 1-(4-((3-(4-methoxyphenoxy)propyl)amino)butyl)cyclopropan-1-ol] | +++ |  | 0.0815 µM
4 | COc1ccc(SCCCNCCCCC2(O)CC2)cc1 [Compound 13c, 1-(4-((3-((4-Methoxyphenyl)thio)propyl)amino)butyl)cyclopropan-1-ol] | ++ |  | 0.0102 µM
5 | COc1ccc2c(c1)CN(CCCCC1(O)CC1)CCS2 [Compound 13d, 1-(4-(7-methoxy-2,3-dihydrobenzo[1,4-f]thiazepin-4(5H)-yl)butyl)cyclopropan-1-ol] | - | no significant RyR2-stabilizing effect | 
6 | COc1ccc2c(c1)CN(CCCCN(CCCCC1(O)CC1)CCCCC1(O)CC1)CCS2 [Compound 14a, 1,1'-(((4-(7-Methoxy-2,3-dihydrobenzo[1,4-f]thiazepin-4(5H)-yl)butyl)azanediyl)bis(butane-4,1-diyl))bis(cyclopropan-1-ol)] | +++ |  | 
7 | COc1ccc(SCCCN(CCCCC2(O)CC2)CCCCC2(O)CC2)cc1 [Compound 14c, 1,1'-(((3-((4-Methoxyphenyl)thio)propyl)azanediyl)bis(butane-4,1-diyl))bis(cyclopropan-1-ol)] | + |  | 0.0186 µM
8 | COc1ccc2c(c1)CN(C(=O)C(=O)O)CCS2 [Compound S36, reference compound] | +++ | increase in R-CEPIA1er fluorescence | 
